± gives the expanded uncertainty stated by the source.

The text below walks through data of the NIST ThermoML archive (doi:10.1016/j.fluid.2006.02.002).

The conditions of this series: Liquid; ebulliometry.
As for `CC(=O)O` [acetic acid], the Normal boiling temperature worked out at 117.70 ± 0.2 °C.

Take `CNC(C)=O` [N-methylacetamide]: the Normal boiling temperature is 204.92 ± 0.2 °C.

In the case of `O` [water], the Normal boiling temperature is 99.81 ± 0.2 °C.

Take `CN1CCCC1=O` [N-methylpyrrolidone]: the Normal boiling temperature is 203.86 ± 0.2 °C.
